# Structures can show the parent of a compound that is named as a salt.
row,melting point,SMILES
1,73 to 76 °C,"CN(C)CCn1ccc2cccc(NS(=O)(=O)c3c(Cl)nc4sccn34)c21 [Example 4, N-[1-(2-dimethylaminoethyl)-1H-indole-7-yl]-6-chloroimidazo[2,1-b]thiazole-5-sulfonamide]"
2,46 to 49 °C,"O=S(=O)(CCc1cccc2ccccc12)Nc1cccc2ccn(CCN3CCCC3)c12 [Example 8, 2-(naphth-1-yl)-N-(1-(2-(pyrrolidin-1-yl)ethyl)-1H-indol-7-yl)ethansulfonamide]"
3,196 to 199 °C,"O=S(=O)(Nc1cccc2ccn(CCN3CCCC3)c12)c1cccc2ccccc12 [Example 6, N-(1-(2-(pyrrolidin-1-yl)ethyl)-1H-indol-7-yl)naphthalene-1-sulfonamide]"
4,57 to 65 °C,"Cc1c(S(=O)(=O)Nc2cccc3ccn(CCN(C)C)c23)sc2ccc(Cl)cc12 [Example 2, N-[1-(2-dimethylaminoethyl)-1H-indole-7-yl]-5-chloro-3-methyl-benzo[b]thiophene-2-sulfonamide]"
5,92 to 95 °C,"O=S(=O)(Nc1cccc2ccn(CCN3CCCC3)c12)c1c(Cl)nc2sccn12 (as salt: TFA) [Example 7, 6-chloro-N-(1-(2-(pyrrolidin-1-yl)ethyl)-1H-indol-7-yl)imidazo[2,1-b]thiazole-5-sulfonamide]"
6,137 to 140 °C,"CN(C)CCn1ccc2cccc(NS(=O)(=O)c3ccc(-c4ccccc4)cc3)c21 [Example 3, N-[1-(2-dimethylaminoethyl)-1H-indole-7-yl]-4 phenylbenzenesulfonamide]"

# Reference: patent US7414070B2, “Indol-7-YL sulfonamide derivatives, their preparation and their use in pharmaceutical compositions” (Laboratorios del Dr. ESTEVE S.A., priority 2003, dated 2008)
